# According to patent US12404241B2 (Celgene Corporation, priority 2018, dated 2025):
# Where a name gives a salt, the structure may show the parent alone.
# Target: T1, AR (Homo sapiens, UniProt P10275)
# T1 construct: endogenous in cells; host or cells: VCaP cells
# T1 sequence (P10275 1-920): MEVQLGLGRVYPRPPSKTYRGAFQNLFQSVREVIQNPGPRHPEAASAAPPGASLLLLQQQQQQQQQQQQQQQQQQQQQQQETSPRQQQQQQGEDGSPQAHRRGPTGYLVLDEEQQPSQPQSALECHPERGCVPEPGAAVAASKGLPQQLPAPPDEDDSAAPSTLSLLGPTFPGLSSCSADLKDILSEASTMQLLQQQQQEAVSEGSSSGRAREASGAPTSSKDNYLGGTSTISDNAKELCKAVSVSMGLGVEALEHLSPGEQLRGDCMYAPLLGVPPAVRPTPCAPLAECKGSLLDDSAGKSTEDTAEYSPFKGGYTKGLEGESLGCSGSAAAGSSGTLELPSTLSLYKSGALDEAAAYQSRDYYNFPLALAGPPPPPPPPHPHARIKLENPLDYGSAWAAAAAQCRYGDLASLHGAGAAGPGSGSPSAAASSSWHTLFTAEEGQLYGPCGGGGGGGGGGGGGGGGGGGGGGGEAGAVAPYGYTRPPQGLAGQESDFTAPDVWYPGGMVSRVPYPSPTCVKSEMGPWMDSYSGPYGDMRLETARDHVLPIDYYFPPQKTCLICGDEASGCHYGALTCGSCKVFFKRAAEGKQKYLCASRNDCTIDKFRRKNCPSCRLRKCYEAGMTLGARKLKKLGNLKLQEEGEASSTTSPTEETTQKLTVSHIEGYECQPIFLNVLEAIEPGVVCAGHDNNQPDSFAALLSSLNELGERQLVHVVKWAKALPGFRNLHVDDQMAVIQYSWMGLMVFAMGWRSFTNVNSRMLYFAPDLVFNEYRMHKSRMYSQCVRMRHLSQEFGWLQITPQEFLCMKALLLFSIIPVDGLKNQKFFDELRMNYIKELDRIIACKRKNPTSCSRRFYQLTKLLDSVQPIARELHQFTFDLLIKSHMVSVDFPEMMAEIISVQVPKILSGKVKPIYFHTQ
# Assay: VCAP AR Degradation Assay
# Format: cell-based
# Details: for Y (AR degradation efficiency, % of DMSO control): class symbols *; for DC50: class symbols A-C, read-out: DC50
# How it was run: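 Compounds were plated as 10-point 1:3 series reaching 5 μM final, then VCaP cells were seeded onto them and incubated 24 h at 37 °C. Cells were lysed cold, and total AR was measured by sandwich ELISA relative to 0.1% DMSO wells.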
Structure (SMILES),"Y (AR degradation efficiency, % of DMSO control)",DC50 [µM]
"CCc1cc(N2C(=S)N(c3ccc(C#N)c(C(F)(F)F)c3)C(=O)C2(C)C)ccc1OCCN1CCN(CC(=O)Nc2cccc(N[C@@H]3CCC(=O)NC3=O)c2)[C@H](C)C1 [Example 112, 2-((R)-4-(2-(4-(3-(4-cyano-3-(trifluoromethyl)phenyl)-5,5-dimethyl-4-oxo-2-thioxoimidazolidin-1-yl)-2-ethylphenoxy)ethyl)-2-methylpiperazin-1-yl)-N-(3-((R)-2,6-dioxopiperidin-3-ylamino)phenyl)acetamide]",* (0<Y<=25%),< 0.1
"CCc1cc(N2C(=S)N(c3cnc(C#N)c(C(F)(F)F)c3)C(=O)C2(C)C)ccc1O[C@@H](C)CN1C[C@@H](C)N(CC(=O)Nc2cccc(NC3CCC(=O)NC3=O)c2)[C@@H](C)C1 (single isomer, unassigned) [Example 240]",** (25%<Y<=35%),0.1 to 0.5
"CC[C@@H]1CN(CCOc2ccc(N3C(=S)N(c4ccc(C#N)c(C(F)(F)F)c4)C(=O)C3(C)C)cc2C2CC2)CCN1CC(=O)Nc1cccc(NC2CCC(=O)NC2=O)c1 (stereo partly drawn) [Example 261, 2-((R)-4-(2-(4-(3-(4-cyano-3-(trifluoromethyl)phenyl)-5,5-dimethyl-4-oxo-2-thioxoimidazolidin-1-yl)-2-cyclopropylphenoxy)ethyl)-2-ethylpiperazin-1-yl)-N-(3-(2,6-dioxopiperidin-3-ylamino)phenyl)acetamide]",** (25%<Y<=35%),0.1 to 0.5
"C[C@@H]1CN(CCOc2ccc(N3C(=S)N(c4ccc(C#N)c(C(F)(F)F)c4)C(=O)C3(C)C)cc2CC(F)F)CCN1CC(=O)Nc1cc(NC2CCC(=O)NC2=O)ccc1F (stereo partly drawn) [Example 156, 2-((R)-4-(2-(4-(3-(4-cyano-3-(trifluoromethyl)phenyl)-5,5-dimethyl-4-oxo-2-thioxoimidazolidin-1-yl)-2-(2,2-difluoroethyl)phenoxy)ethyl)-2-methylpiperazin-1-yl)-N-(5-(2,6-dioxopiperidin-3-ylamino)-2-fluorophenyl)acetamide]",* (0<Y<=25%),< 0.1
"CCc1cc(N2C(=S)N(c3ccc(C#N)c(C(F)(F)F)c3)C(=O)C2(C)C)ccc1OCCN1CCN(CC(=O)Nc2cccc(N[C@@H]3CCC(=O)NC3=O)c2)CC1 [Example 28, hydrochloride]",* (0<Y<=25%),< 0.1
"CC(C)c1cc(N2C(=S)N(c3cnc(C#N)c(C(F)(F)F)c3)C(=O)C2(C)C)ccc1OCCN1C[C@@H](C)N(CC(=O)Nc2cccc(NC3CCC(=O)NC3=O)c2)C[C@H]1C (stereo partly drawn) [Example 192, 2-((2R,5R)-4-(2-(4-(3-(6-cyano-5-(trifluoromethyl)pyridin-3-yl)-5,5-dimethyl-4-oxo-2-thioxoimidazolidin-1-yl)-2-isopropylphenoxy)ethyl)-2,5-dimethylpiperazin-1-yl)-N-(3-(2,6-dioxopiperidin-3-ylamino)phenyl)acetamide]",** (25%<Y<=35%),0.1 to 0.5
"CCc1cc(N2C(=S)N(c3cnc(C#N)c(C(F)(F)F)c3)C(=O)C2(C)C)ccc1OCCN1CCN([C@H](C)C(=O)Nc2cccc(NC3CCC(=O)NC3=O)c2)CC1 (stereo partly drawn) [Example 119, (2R)-2-(4-(2-(4-(3-(6-cyano-5-(trifluoromethyl)pyridin-3-yl)-5,5-dimethyl-4-oxo-2-thioxoimidazolidin-1-yl)-2-ethylphenoxy)ethyl)piperazin-1-yl)-N-(3-(2,6-dioxopiperidin-3-ylamino)phenyl)propanamide]",* (0<Y<=25%),< 0.1
"CCc1cc(N2C(=S)N(c3ccc(C#N)c(C(F)(F)F)c3)C(=O)C2(C)C)ccc1OCCN1C[C@@H](C)N(CC(=O)Nc2cccc(NC3CCC(=O)NC3=O)c2)C[C@H]1C (stereo partly drawn) [Example 127, 2-((2R,5R)-4-(2-(4-(3-(4-cyano-3-(trifluoromethyl)phenyl)-5,5-dimethyl-4-oxo-2-thioxoimidazolidin-1-yl)-2-ethylphenoxy)ethyl)-2,5-dimethylpiperazin-1-yl)-N-(3-(2,6-dioxopiperidin-3-ylamino)phenyl)acetamide]",* (0<Y<=25%),< 0.1
"CC1(C)C(=O)N(c2ccc(C#N)c(C(F)(F)F)c2)C(=S)N1c1ccc(OCCN2CCN(CC(=O)Nc3cc(F)cc(NC4CCC(=O)NC4=O)c3)CC2)c(F)c1 (centres unmarked) [Example 19, formate]",* (0<Y<=25%),< 0.1
"CCc1cc(N2C(=S)N(c3cnc(C#N)c(C(F)(F)F)c3)C(=O)C2(C)C)ccc1OCCN1CCN(CC(=O)Nc2cc(NC3CCC(=O)NC3=O)ccc2F)[C@H](C)C1 (stereo partly drawn) [Example 76, 2-((R)-4-(2-(4-(3-(6-cyano-5-(trifluoromethyl)pyridin-3-yl)-5,5-dimethyl-4-oxo-2-thioxoimidazolidin-1-yl)-2-ethylphenoxy)ethyl)-2-methylpiperazin-1-yl)-N-(5-(2,6-dioxopiperidin-3-ylamino)-2-fluorophenyl)acetamide]",* (0<Y<=25%),< 0.1
"CCc1cc(N2C(=S)N(c3ccc(C#N)c(C(F)(F)F)c3)C(=O)C2(C)C)ccc1CCCN1C[C@@H](C)N(CC(=O)Nc2cccc(NC3CCC(=O)NC3=O)c2)[C@@H](C)C1 (stereo partly drawn) [Example 284, 2-((2R,6S)-4-(3-(4-(3-(4-cyano-3-(trifluoromethyl)phenyl)-5,5-dimethyl-4-oxo-2-thioxoimidazolidin-1-yl)-2-ethylphenyl)propyl)-2,6-dimethylpiperazin-1-yl)-N-(3-(2,6-dioxopiperidin-3-ylamino)phenyl)acetamide]",* (0<Y<=25%),< 0.1
"CCc1cc(N2C(=S)N(c3ccc(C#N)c(C(F)(F)F)c3)C(=O)C2(C)C)ccc1OCCN1C[C@@H](C)N(CC(=O)Nc2cc(Cl)cc(NC3CCC(=O)NC3=O)c2)[C@H](C)C1 (stereo partly drawn) [Example 130, N-(3-chloro-5-(2,6-dioxopiperidin-3-ylamino)phenyl)-2-((2R,6R)-4-(2-(4-(3-(4-cyano-3-(trifluoromethyl)phenyl)-5,5-dimethyl-4-oxo-2-thioxoimidazolidin-1-yl)-2-ethylphenoxy)ethyl)-2,6-dimethylpiperazin-1-yl)acetamide]",* (0<Y<=25%),< 0.1
"CC(C)c1cc(N2C(=S)N(c3ccc(C#N)c(C(F)(F)F)c3)C(=O)C2(C)C)ccc1OCCN1C[C@@H](C)N(CC(=O)Nc2cc(Cl)cc(NC3CCC(=O)NC3=O)c2)[C@@H](C)C1 (stereo partly drawn) [Example 208, N-(3-chloro-5-(2,6-dioxopiperidin-3-ylamino)phenyl)-2-((2S,6R)-4-(2-(4-(3-(4-cyano-3-(trifluoromethyl)phenyl)-5,5-dimethyl-4-oxo-2-thioxoimidazolidin-1-yl)-2-isopropylphenoxy)ethyl)-2,6-dimethylpiperazin-1-yl)acetamide]",* (0<Y<=25%),0.1 to 0.5
"CCc1cc(N2C(=S)N(c3cnc(C#N)c(C(F)(F)F)c3)C(=O)C2(C)C)ccc1OCCN1CCN(CC(=O)Nc2cc(NC3CCC(=O)NC3=O)cc(F)c2F)C(C)(C)C1 (centres unmarked) [Example 83, 2-(4-(2-(4-(3-(6-cyano-5-(trifluoromethyl)pyridin-3-yl)-5,5-dimethyl-4-oxo-2-thioxoimidazolidin-1-yl)-2-ethylphenoxy)ethyl)-2,2-dimethylpiperazin-1-yl)-N-(5-(2,6-dioxopiperidin-3-ylamino)-2,3-difluorophenyl)acetamide]",* (0<Y<=25%),< 0.1
"CCc1cc(N2C(=S)N(c3ccc(C#N)c(C(F)(F)F)c3)C(=O)C2(C)C)ccc1OCCN1CCN(CC(=O)Nc2cccc(NC3CCC(=O)NC3=O)c2)[C@H](C(F)(F)F)C1 (stereo partly drawn) [Example 246, 2-((S)-4-(2-(4-(3-(4-cyano-3-(trifluoromethyl)phenyl)-5,5-dimethyl-4-oxo-2-thioxoimidazolidin-1-yl)-2-ethylphenoxy)ethyl)-2-(trifluoromethyl)piperazin-1-yl)-N-(3-(2,6-dioxopiperidin-3-ylamino)phenyl)acetamide]",* (0<Y<=25%),< 0.1
"CC1(C)C(=O)N(c2cnc(C#N)c(C(F)(F)F)c2)C(=S)N1c1ccc(OCCN2CCN(CC(=O)Nc3cccc(NC4CCC(=O)NC4=O)c3)[C@H](C(F)(F)F)C2)c(C2CC2)c1 (stereo partly drawn) [Example 233, 2-((S)-4-(2-(4-(3-(6-cyano-5-(trifluoromethyl)pyridin-3-yl)-5,5-dimethyl-4-oxo-2-thioxoimidazolidin-1-yl)-2-cyclopropylphenoxy)ethyl)-2-(trifluoromethyl)piperazin-1-yl)-N-(3-(2,6-dioxopiperidin-3-ylamino)phenyl)acetamide]",* (0<Y<=25%),< 0.1
